From patent US5142095A, “Diarylalkanoids having activity as lipoxygenase inhibitors” (Warner-Lambert Company, priority 1989, dated 1992)

Key:
5-lipoxygenase = biological target: T1, 5-lipoxygenase (Homo sapiens, UniProt P09917); test: 5-Lipoxygenase Assay Using Isolated Human Leukocytes (5LOA2), 5-HETE formation; format: cell-based; conditions: for IC50: 50% inhibition of 5-HETE formation in human leukocytes, 20 μM arachidonic acid, 10 μM A23187, read-out: 5-LOA IC50; for inhibition at 20 µM: read-out: 5-LOA % inhibition at 20 μM
T1 construct: endogenous in cells; host or cells: leukocytes isolated from fresh human blood
T1 sequence (P09917 1-674): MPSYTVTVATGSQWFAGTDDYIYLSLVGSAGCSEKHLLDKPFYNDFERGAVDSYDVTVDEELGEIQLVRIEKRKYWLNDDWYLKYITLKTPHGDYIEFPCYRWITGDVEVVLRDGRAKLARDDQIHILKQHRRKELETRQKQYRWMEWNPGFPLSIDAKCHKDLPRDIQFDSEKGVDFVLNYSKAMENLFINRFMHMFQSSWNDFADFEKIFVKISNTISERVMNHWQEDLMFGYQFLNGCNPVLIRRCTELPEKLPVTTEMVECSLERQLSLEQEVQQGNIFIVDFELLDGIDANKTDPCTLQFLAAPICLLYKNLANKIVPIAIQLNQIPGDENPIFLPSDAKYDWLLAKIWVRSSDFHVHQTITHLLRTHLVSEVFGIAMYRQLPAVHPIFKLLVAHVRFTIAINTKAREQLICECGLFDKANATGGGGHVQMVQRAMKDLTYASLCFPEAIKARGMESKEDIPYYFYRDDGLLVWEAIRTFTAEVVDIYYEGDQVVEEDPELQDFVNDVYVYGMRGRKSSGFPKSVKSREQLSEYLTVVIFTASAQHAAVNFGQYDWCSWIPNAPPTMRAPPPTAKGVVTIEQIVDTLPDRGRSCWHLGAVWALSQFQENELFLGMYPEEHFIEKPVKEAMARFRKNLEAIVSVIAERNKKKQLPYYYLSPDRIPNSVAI
Procedure: 5-Lipoxygenase Assay Using Isolated Human Leukocytes (5LOA2)
The formation of 5-HETE in human leukocytes is considered a measure of 5-lipoxygenase activity. The protocol is described in the following.
Fresh heparinized or EDTA treated human blood is mixed with 6% dextran-3% dextrose in isotonic saline in the ratio 0.25 ml dextran solution per 1.0 ml blood. After mixing the blood is allowed to sit at room temperature for about 90 minutes while the RBC's settle. During this period, the plasma is removed with a plastic pipette to nalgens tubes.
The plasma is centrifuged at 800 rpm ([…]) on the Beckman Td-b refrigerated centrifuge to remove the platelets (which remain in the supernatant). The pellet, consisting of leukocytes and erythrocytes, is treated with 10 ml 0.87% ammonium chloride at room temperature for four minutes, lysing the red cells. At the end of four minutes the cells are diluted with a 2× volume of phosphate buffered saline, pH 7.4, and centrifuged for ten minutes. The cells are washed three times with the phosphate buffered saline. Any of the pelleted cell matter which is not easily resuspended is discarded during the washings--the material contains platelets (12-lipoxygenase activity).
After washing, the cells are resuspended in phosphate buffered saline containing 1.0 mM calcium and 0.5 mM magnesium. After counting, the cells are diluted to 1.5-2.0×10^-7 leukocytes per milliliter.
To each poly propylene reaction tube is added 0.48 ml leukocytes in Ca-Mg phosphate buffered saline, pH 7.4; 1-5 μl test compound dissolved in DMSO and buffer; or DMSO for control tubes.
The tubes preincubate at 37° C. for five minutes.
The reaction is started by adding 20 μl of the following, 0.5 μl, 20 mM arachidonic acid--final concentration =20 μm; 1 μl, 5 mM calcium ionophore A23187--final concentration =10 μm; and 18.5 μl buffer.
The reaction proceeds for five minutes, then is stopped by adding 0.5 ml, 0.5 mM ice cold Tris buffer, pH 8.0. The tubes are chilled on ice for ten minutes and then extracted three times with a total of 3.5 ml ethyl acetate (3.0 ml removed).
The tubes can be stored at this point. For extended storage, the tubes should be filled with nitrogen.
The ethyl acetate is evaporated with a Sorvall Speed-Vac. The residue is dissolved in ethanol. The tubes can also be stored at this point at -20° C. under nitrogen.
A portion of the ethanol solution is injected into the HPLC system for 5-HETE quantitation.
The HPLC system consists of Hewlett-Packard 1040A UV spectrophotometry system with an HP85 computer. Injections are made automatically with a Waters WISP 710B. The pump is a Spectra Physics SP8700. Peaks are measured with a Hewlett Packard 3390A integrator. An RP C-18 column is used. The solvent system is isocratic; the solvent is 70% methanol and 30% 0.01M sodium acetate, pH 5.7, pumped at 1.0 ml/min. The flow is monitored at 235 nm for 5-HETE quantitation. Using a 15 cm Alltech Nucleosil C-18 5 μM column provides for a sample turnaround time of about 16 minutes.
IC50 is calculated as the amount of test agent that causes 50% inhibition of the formation of 5-HETE relative to the control.

Cyclooxygenase = biological target: T2, Cyclooxygenase (Bos taurus, UniProt O62664); test: Cyclooxygenase Enzyme Assay (BSV), bovine seminal vesicle powder, PGE2 formation; format: biochemical; conditions: 100 μM arachidonic acid, 20 minutes
T2 construct: The assay consists of incubating 2 mg bovine seminal vesicle powder; from tissue; host or cells: bovine seminal vesicle powder
T2 sequence (O62664 25-600): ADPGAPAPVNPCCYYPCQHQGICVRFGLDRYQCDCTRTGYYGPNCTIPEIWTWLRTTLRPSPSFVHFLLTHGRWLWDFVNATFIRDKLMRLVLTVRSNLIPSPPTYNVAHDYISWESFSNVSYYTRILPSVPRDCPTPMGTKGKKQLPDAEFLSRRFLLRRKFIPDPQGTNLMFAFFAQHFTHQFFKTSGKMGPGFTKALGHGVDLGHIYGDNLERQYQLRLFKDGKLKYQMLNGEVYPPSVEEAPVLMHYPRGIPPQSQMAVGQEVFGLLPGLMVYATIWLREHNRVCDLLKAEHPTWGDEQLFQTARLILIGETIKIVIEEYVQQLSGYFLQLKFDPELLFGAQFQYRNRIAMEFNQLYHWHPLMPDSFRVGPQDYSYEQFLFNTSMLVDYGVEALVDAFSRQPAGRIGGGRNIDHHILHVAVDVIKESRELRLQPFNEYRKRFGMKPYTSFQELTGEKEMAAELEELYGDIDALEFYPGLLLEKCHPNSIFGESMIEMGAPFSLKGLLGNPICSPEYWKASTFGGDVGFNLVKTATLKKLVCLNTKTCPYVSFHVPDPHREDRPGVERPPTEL
Procedure: Cyclooxygenase Enzyme Assay (BSV) […]
The assay consists of incubating 2 mg bovine seminal vesicle powder with 2 mM epinephrine, 2.5 mM reduced glutathione, 100 μM arachidonic acid, and the test agent for 20 minutes. The reaction mixture is acidified and extracted with ethyl acetate (3×1.0 ml) and the pooled extract is evaporated to dryness using a Speed Vac Concentrator or under a stream of nitrogen. The residue is dissolved in ethanol An aliquot is applied on 20×20 cm silica gel plate and developed using water:ethyl acetate:hexane:acetic acid (60:54:25:12.5, upper phase) to separate PGE2 from arachidonic acid. ^14 C-PGE2 formed is identified by co-chromatography with authentic ^3 H-PGE2 and the amount of radioacitvity is quantitated using an automatic TLC linear scanner (Berthold, Pittsburgh, Pa.) linked to an Apple II-e computer and an ICso is calculated as the amount of test agent causing 50% inhibition of Cyclooxygenase Enzyme relative to the control.

Structure (SMILES) | IC50 (5-lipoxygenase) [µM] | inhibition at 20 µM (5-lipoxygenase) [%] | IC50 (Cyclooxygenase) [µM]
O=C(/C=C/c1ccc(C(=O)O)cc1)CCCCc1ccccc1 [Example 6] |  | 19 | 
COc1ccc(C=CC(=O)CCCCc2ccccc2)cc1O [Example 1, 1-(3-Hydroxy-4-methoxyphenyl)-7-phenyl-1-hepten3-one] | 11 |  | 
O=C(/C=C/c1ccc(O)c(O)c1)CCCCc1ccccc1 [Example 2, 1-(3,4-dihydroxyphenyl)-7-phenyl-1-hepten-3-one] | 1.7 |  | 
O=C(/C=C/c1ccc(O)c(O)c1)CCCc1ccccc1 [Example 8] | 2 |  | 
COc1cc(C=CC(=O)CCc2ccc(O)c(OC)c2)ccc1O [Example 13, 1-Penten-3-one, 1,5-bis(4-hydroxy-3-methoxyphenyl)] | 19 |  | 84
Nc1cc(/C=C/C(CCc2ccccc2)=NO)ccc1O (single isomer, unassigned) [23 (Isomer A), 1-Penten-3-one, 1-(3-amino-4-hydroxyphenyl)-5-phenyl, oxime] | 0.165 |  | 98
O=C(/C=C/c1ccc(O)c([N+](=O)[O-])c1)CCc1ccccc1 [Example 12, 1-Pentene-3-one, 1-(4-hydroxy-3-nitrophenyl)-5-phenyl] |  | 22 | 135
O=C(/C=C/c1ccc(O)c(CO)c1)CCCCc1ccccc1 [Example 4] |  | 17 | 
COc1cc(/C=C/C(=O)CCCc2ccccc2)ccc1O [Example 7] | 18 |  | 
O=C(/C=C/c1ccc(O)cc1)CCCCc1ccccc1 [Example 3] |  | 30 | 
O=C(/C=C/c1ccc(O)c(Cl)c1)CCCCc1ccccc1 [Example 5] | 8.8 |  | 
Nc1cc(/C=C/C(CCc2ccccc2)=NO)ccc1O (single isomer, unassigned) [23 (Isomer B), 1-Penten-3-one, 1-(3-amino-4-hydroxyphenyl)-5-phenyl, oxime] | 0.26 |  | 90
O=C(/C=C/c1ccc(O)c(CO)c1)CCc1ccccc1 [Example 10] | 18 |  | 92
O=C(/C=C/c1ccc(O)c(Cl)c1)CCc1ccccc1 [Example 11] | 22 |  | 110
COc1cc(/C=C/C(=O)CCc2ccccc2)ccc1O [Example 9] | 15 |  | 31

Further lines, results first:

IC50 (5-lipoxygenase) [µM] | inhibition at 20 µM (5-lipoxygenase) [%] | IC50 (Cyclooxygenase) [µM] | Structure (SMILES)
12 |  |  | COc1cc(C=CC(=O)CSc2ccccc2)ccc1O [Example 16A, 1-(4-Hydroxy-3-methoxyphenyl)-4-phenylthio-1-butene-3-one]
8.7 |  |  | OCc1cc(/C=C/C(CCCCc2ccccc2)=NO)ccc1O [Example 20]
0.71 |  | 170 | COc1cc(C=CC(CCCOc2ccccc2)=NO)ccc1O [Example 25, 1-(4-Hydroxy-3-methoxyphenyl)-6-phenoxy-1-hexen-3-one oxime]
3 |  |  | CON=C(C=Cc1ccc(O)c(OC)c1)CCCCc1ccccc1 [Example 26, 1-(4-Hydroxy-3-methoxyphenyl)-7-phenyl-1-hepten-3-one, O-methyl oxime]
35 |  |  | OCc1cc(/C=C/C(CCc2ccccc2)=NO)ccc1O [Example 22]
0.079 |  | 169 | Nc1cc(/C=C/C(=O)CCc2ccccc2)ccc1O [Example 15, 1-Pentene-3-one, 1-(3-amino-4-hydroxyphenyl)-5phenyl]
2.5 |  | 57 | COc1cc(C=CC(COc2ccccc2)=NO)ccc1O [Example 24, 1-(4-Hydroxy-3-methoxyphenyl)-4-phenoxy-1-buten-3-one oxime]
0.42 |  | 33 | COc1cc(/C=C/C(CCc2ccccc2)=NO)ccc1O [Example 21, 1-Penten-3-one, 1-(4-hydroxy-3-methoxyphenyl)-5-phenyl, oxime]
1 |  | 125 | ON=C(/C=C/c1ccc(O)c(O)c1)CCCCc1ccccc1 [Example 19, 1-Hepten-3-one, 1-(3,4-dihydroxyphenyl)-7-phenyl, oxime]
20 |  | 130 | COc1cc(C=CC(=O)COc2ccccc2)ccc1O [Example 16, 1(4'-Hydroxy-3'-methoxyphenyl)-4-phenoxy-1-butene-3-one]
11 |  | 31 | COc1cc(C=CC(=O)CCCOc2ccccc2)ccc1O [Example 14, 1-(4-Hydroxy-3-methoxyphenyl)-6-phenoxy-1-hexene-3-one]
5.9 |  |  | COc1ccc(/C=C/C(CCCCc2ccccc2)=NO)cc1O [Example 18]
1.7 |  | 23 | COc1cc(/C=C/C(CCCCc2ccccc2)=NO)ccc1O [Example 17, 1-Hepten-3-one, 1-(4-hydroxy-3-methoxyphenyl)-7-phenyl, oxime]
